In US20240350575A1, “PLANT EXTRACT FOR ALLEVATING PULMONARY FIBROSIS, AND PREPARATION METHOD AND USE THEREOF” (Guangdong GreenTech Lemon Innovations Co., Ltd., priority 2023, published 2024):

Legend:
Type in all cases: in vivo, SD rats
[1] = system: rat models of pulmonary fibrosis; test: Body weight in bleomycin-induced rat models of pulmonary fibrosis
From the text: (§1) The present experimental example explored the influence of the plant extract solution prepared in Embodiments 1-3 on the body weight and lung coefficient of rats. The method was as follows:
(§2) 80 healthy SD rats including half males and half females with a body weight of 230 g±10 g were selected and divided into a blank group, a model group, embodiment group 1, embodiment group 2, embodiment group 3, comparative example group 1, comparative example group 2 and a positive control group, each group consisting of 10 rats. After the rats in each group were raised regularly for one week, each rat was intraperitoneally injected with 4% chloral hydrate at an injection dose of 10 ml/kg. The anesthetized rats were fixed in a supine position, and the rat necks were subjected to hair removal, disinfected with iodine alcohol, and longitudinally cut to expose tracheas. Except for the blank group, the rats in each group were pierced with an injector by 1 cm toward the heart through a gap between two tracheal cartilage rings, and after resistance-free withdrawal, bleomycin was injected into the trachea at a dose of 5 mg/kg. The blank group was injected with an equal volume of normal saline. Immediately after injection, the rats were rotated upright for 5 min to fully distribute the medicament in the lungs. Various layers of tissues were sutured, and local alcohol disinfection was performed. 24 hours after modeling, the rats in the blank group and the model group were intragastrically administered with normal saline at a dose of 5 mL/kg every day, the rats in the positive control group were intragastrically administered with prednisone acetate at a dose of 5 mL/kg every day, and the rats in embodiment groups 1-3 and comparative example groups 1-2 were intragastrically administered with corresponding plant extract at a dose of 5 mL/kg continuously for 28 d. During this period, the rats in each group were raised according to a conventional method.
(1) Body weight: weighed the rats in each group on the day of intragastric administration, and weighed the rats in each group every 7 d.

[2] = system: rat models of pulmonary fibrosis; test: Hydroxyproline content in lung tissues of rat models of pulmonary fibrosis; conditions: lung tissue, bleomycin rats, after intragastric administration 5 mL/kg daily for 28 d
Experimental: as §2, with “24 hours after modeling, the rats in the blank group and the model group were intragastrically administered with normal saline at a dose of 5 mL/kg every day, the rats in the positive control group were intragastrically administered with prednisone acetate at a dose of 5 mL/kg every day, and the rats in embodiment groups 1-3 and comparative example groups 1-2 were intragastrically administered with corresponding plant extract at a dose of 5 mL/kg continuously for 28 d. During this period, the rats in each group were raised according to a conventional method.” left out

[3] = system: rat models of pulmonary fibrosis; test: Lung coefficient in bleomycin-induced rat models of pulmonary fibrosis; conditions: wet lung weight/body weight x100%, bleomycin rats, intragastric 5 mL/kg daily
From the text: as §1
as §2, with “24 hours after modeling, the rats in the blank group and the model group were intragastrically administered with normal saline at a dose of 5 mL/kg every day, the rats in the positive control group were intragastrically administered with prednisone acetate at a dose of 5 mL/kg every day, and the rats in embodiment groups 1-3 and comparative example groups 1-2 were intragastrically administered with corresponding plant extract at a dose of 5 mL/kg continuously for 28 d. During this period, the rats in each group were raised according to a conventional method.” left out

## CC(=O)OCC(=O)[C@@]1(O)CC[C@H]2[C@@H]3CCC4=CC(=O)C=C[C@]4(C)[C@H]3C(=O)C[C@@]21C [Positive control group, prednisone acetate]
[1]; baseline, day of first intragastric administration, 24 h after bleomycin 5 mg/kg intratracheal
  Initial weight: 228.1 g
[1]; bleomycin rats, intragastric 5 mL/kg daily, day 7
  Weight on the 7th day: 253.2 g
[1]; bleomycin rats, intragastric 5 mL/kg daily, day 14
  Weight on the 14th day: 260.7 g
[1]; bleomycin rats, intragastric 5 mL/kg daily, day 21
  Weight on the 21st day: 267.6 g
[1]; bleomycin rats, intragastric 5 mL/kg daily, day 28
  Weight on the 28th day: 273.2 g
[2]
  Hydroxyproline content: 0.847 µg/mg
[3]; day 14
  Lung coefficient on the 14th day: 0.568%
[3]; day 28
  Lung coefficient on the 28th day: 0.594%
